Results on 28 compounds are retold here after US10759790B2, “Heterocyclic constrained tricyclic sulfonamides as anti-cancer agents” (ICAHN SCHOOL OF MEDICINE AT MOUNT SINAI, priority 2015, dated 2020).

pIC50: −log10 of the molar value.

The subject of the first data set is H1650 lung cancer cells. The data set can be described thus: Cell viability assay (MTT, IC50 determination). The format is cell-based. The settings on record: Homo sapiens, NCI-H1650, 48 h, read-out: H1650 cell viability IC50. The method, then: Cell viability assays were performed according to Denizot, F. and R. Lang, Journal of Immunological Methods, 1986. 89(22): p. 271-277. H1650 lung cancer cells were plated at 150,000 cells per well in a 12 well plate. Twenty-four hours after plating, cells were treated as described with increasing concentrations of drug and control. Forty-eight hours after drug treatment, cells were treated with 100 μL of 3-(4,5-Dimethylthiazol-2-yl)-2,5-diphenyltetrazolium bromide (MTT) and incubated for 2 hours at 37 C. The MTT solution was subsequently replaced with 300 μL of n-propyl alcohol and re-aliquoted to a 96 well plate. Spectrophotometric analysis of each solution was performed using a 96 well plate reader at 600 nm in triplicate.
In general, pIC50 refers to the IC50 on a negative log10 scale, so that one unit is a factor of ten. `COC(=O)N1C[C@H](NS(=O)(=O)c2ccc(OC(F)(F)F)cc2)[C@@H](O)[C@H](N2c3ccccc3Oc3ccccc32)C1` [Example 20b, (3R,4S,5S)-methyl 4-hydroxy-3-(10H-phenoxazin-10-yl)-5-(4-(trifluoromethoxy)phenylsulfonamido)piperidine-1-carboxylate]: the pIC50 is 5.30.

With `CC(=O)N1C[C@H](NS(=O)(=O)c2ccc(OC(F)(F)F)cc2)[C@@H](O)[C@H](N2c3ccccc3Oc3ccccc32)C1` [Example 18b, N-((3S,4S,5R)-1-acetyl-4-hydroxy-5-(10H-phenoxazin-10-yl)piperidin-3-yl)-4-(trifluoromethoxy)benzenesulfonamide], the pIC50 is 4.82.

Still in this data set, the particulars now being: Homo sapiens, NCI-H1650; H1650 lung cancer cells, MTT, 48 hours after drug treatment; read-out: H1650 cell viability IC50.
For `CC(C)(C)OC(=O)N1C[C@@H](NS(=O)(=O)c2ccc(OC(F)(F)F)cc2)[C@H](O)[C@@H](N2c3ccccc3Oc3ccccc32)C1` [Example 16a, (3S,4R,5R)-tert-butyl 4-hydroxy-3-(10H-phenoxazin-10-yl)-5-(4-(trifluoromethoxy)phenylsulfonamido)piperidine-1-carboxylate], the pIC50 was 5.00.

Regarding `CC(C)(C)c1ccc2c(c1)c1ccccc1n2[C@H]1CNC[C@@H](NS(=O)(=O)c2ccc(OC(F)(F)F)cc2)[C@@H]1O` [Example 53a, N-((3R,4R,5S)-5-(3-(tert-butyl)-9H-carbazol-9-yl)-4-hydroxypiperidin-3-yl)-4-(trifluoromethoxy)benzenesulfonamide], the pIC50 is 5.30.

As to `O=S(=O)(N[C@@H]1COC[C@H](N2c3ccccc3Oc3ccccc32)[C@H]1O)c1cccc(Cl)c1` [Example 64, 3-chloro-N-((3R,4R,5S)-4-hydroxy-5-(10H-phenoxazin-10-yl)tetrahydro-2H-pyran-3-yl)benzenesulfonamide], the pIC50 was 4.82.

Take `CC(C)(C)OC(=O)N1C[C@@H](NS(=O)(=O)c2ccc(OC(F)(F)F)cc2)[C@H](O)[C@@H](n2c3ccc(F)cc3c3cc(F)ccc32)C1` [Example 54, (3S,4R,5R)-tert-butyl 3-(3,6-difluoro-9H-carbazol-9-yl)-4-hydroxy-5-(4-(trifluoromethoxy)phenylsulfonamido)piperidine-1-carboxylate]: the pIC50 is 5.30.

Consider `O=S(=O)(N[C@@H]1COC[C@H](N2c3ccc(C(F)(F)F)cc3Oc3cc(C(F)(F)F)ccc32)[C@H]1O)c1ccc(OC(F)(F)F)cc1` [Example 14, N-((3R,4R,5S)-5-(3,7-bis(trifluoromethyl)-10H-phenoxazin-10-yl)-4-hydroxytetrahydro-2H-pyran-3-yl)-4-(trifluoromethoxy)benzenesulfonamide], for which the pIC50 is 5.30.

With `CN1C[C@@H](NS(=O)(=O)c2ccc(OC(F)(F)F)cc2)[C@H](O)[C@@H](N2c3ccccc3Oc3ccccc32)C1` [Example 19a], the pIC50 was 4.60.

In the case of `O=S(=O)(N[C@@H]1COCC(n2c3ccccc3c3ccccc32)[C@H]1O)c1ccc(OC(F)(F)F)cc1` (mixture of isomers) [Example 1, Rac-N-(3R,4R,5S)-5-(9H-carbazol-9-yl)-4-hydroxytetrahydro-2H-pyran-3-yl)-4-(trifluoromethoxy)benzenesulfonamide], the pIC50 was 4.82.

With `CN1C[C@H](NS(=O)(=O)c2ccc(OC(F)(F)F)cc2)[C@@H](O)[C@H](N2c3ccccc3Oc3ccccc32)C1` [Example 19b, N-((3S,4S,5R)-4-hydroxy-1-methyl-5-(10H-phenoxazin-10-yl)piperidin-3-yl)-4-(trifluoromethoxy)benzenesulfonamide], the pIC50 was 4.82.

Regarding `CC(C)(C)OC(=O)N1C[C@H](NS(=O)(=O)c2ccc(OC(F)(F)F)cc2)[C@@H](O)[C@H](n2c3ccccc3c3ccccc32)C1` [Example 52b, (3R,4S,5S)-tert-butyl 3-(9H-carbazol-9-yl)-4-hydroxy-5-(4-(trifluoromethoxy)phenylsulfonamido)piperidine-1-carboxylate], the negative-log IC50 (pIC50) is 5.30.

As to `O=S(=O)(N[C@@H]1COC[C@H](N2c3ccc(Cl)cc3Oc3cc(Cl)ccc32)[C@H]1O)c1ccc(OC(F)(F)F)cc1` [Example 12, N-((3R,4R,5S)-5-(3,7-dichloro-10H-phenoxazin-10-yl)-4-hydroxytetrahydro-2H-pyran-3-yl)-4-(trifluoromethoxy)benzenesulfonamide], the pIC50 was 5.00.

`CC(C)(C)OC(=O)Nc1ccc(S(=O)(=O)N[C@@H]2COC[C@H](N3c4ccccc4Oc4ccccc43)[C@H]2O)cc1` [Example 66, tert-butyl (4-(N-((3R,4R,5S)-4-hydroxy-5-(10H-phenoxazin-10-yl)tetrahydro-2H-pyran-3-yl)sulfamoyl)phenyl)carbamate]: the pIC50 was 5.30.

For the compound `O=S(=O)(N[C@@H]1COC[C@H](N2c3ccccc3Oc3ccccc32)[C@H]1O)c1ccc(Cl)s1` [Example 62, 5-chloro-N-((3R,4R,5S)-4-hydroxy-5-(10H-phenoxazin-10-yl)tetrahydro-2H-pyran-3-yl)thiophene-2-sulfonamide], the pIC50 was 4.82.

As to `CC(C)(C)OC(=O)N1C[C@H](NS(=O)(=O)c2ccc(OC(F)(F)F)cc2)[C@@H](O)[C@H](N2c3ccccc3Oc3ccccc32)C1` [Example 16b, (3R,4S,5S)-tert-butyl 4-hydroxy-3-(10H-phenoxazin-10-yl)-5-(4-(trifluoromethoxy)phenylsulfonamido)piperidine-1-carboxylate], the pIC50 is 5.00.

In the case of `CC(C)(C)OC(=O)Nc1cccc(S(=O)(=O)N[C@@H]2COC[C@H](N3c4ccccc4Oc4ccccc43)[C@H]2O)c1` [Example 68, tert-butyl (3-(N-((3R,4R,5S)-4-hydroxy-5-(10H-phenoxazin-10-yl)tetrahydro-2H-pyran-3-yl)sulfamoyl)phenyl)carbamate], the pIC50 was 5.30.

Consider `O=S(=O)(N[C@@H]1CNCC(N2c3ccccc3Oc3ccccc32)[C@H]1O)c1ccc(OC(F)(F)F)cc1` (mixture of isomers) [Example 17, Rac-N-((3R,4R,5S)-4-hydroxy-5-(10H-phenoxazin-10-yl)piperidin-3-yl)-4-(trifluoromethoxy)benzenesulfonamide], for which the pIC50 was 5.30.

On to `O=S(=O)(N[C@@H]1COC[C@H](N2c3ccccc3Oc3ccccc32)[C@H]1O)c1ccc(Cl)cc1` [Example 61, 4-chloro-N-((3R,4R,5S)-4-hydroxy-5-(10H-phenoxazin-10-yl)tetrahydro-2H-pyran-3-yl)benzenesulfonamide], for which the pIC50 is 5.30.

Turning to `O=S(=O)(N[C@@H]1CNC[C@H](N2c3ccc(C(F)(F)F)cc3Oc3cc(C(F)(F)F)ccc32)[C@H]1O)c1ccc(OC(F)(F)F)cc1` [Example 58, N-((3R,4R,5S)-5-(3,7-bis(trifluoromethyl)-10H-phenoxazin-10-yl)-4-hydroxypiperidin-3-yl)-4-(trifluoromethoxy)benzenesulfonamide], the pIC50 is 5.30.

Regarding `O=S(=O)(N[C@@H]1COC[C@H](n2c3ccc(F)cc3c3cc(F)ccc32)[C@H]1O)c1ccc(OC(F)(F)F)cc1` [Example 3, N-((3R,4R,5S)-5-(3,6-difluoro-9H-carbazol-9-yl)-4-hydroxytetrahydro-2H-pyran-3-yl)-4-(trifluoromethoxy)benzenesulfonamide], the pIC50 was 5.00.

For `CC(C)(C)OC(=O)N1C[C@@H](NS(=O)(=O)c2ccc(OC(F)(F)F)cc2)[C@H](O)[C@@H](N2c3ccc(C(F)(F)F)cc3Oc3cc(C(F)(F)F)ccc32)C1` [Example 57, (3S,4R,5R)-tert-butyl 3-(3,7-bis(trifluoromethyl)-10H-phenoxazin-10-yl)-4-hydroxy-5-(4-(trifluoromethoxy)phenylsulfonamido)piperidine-1-carboxylate], the pIC50 is 5.30.

For the compound `O=S(=O)(N[C@@H]1CNC[C@H](N2c3ccccc3Oc3ccccc32)[C@H]1O)c1ccc(OC(F)(F)F)cc1` [Example 17a, N-((3R,4R,5S)-4-hydroxy-5-(10H-phenoxazin-10-yl)piperidin-3-yl)-4-(trifluoromethoxy)benzenesulfonamide], the pIC50 is 4.82.

For `O=S(=O)(N[C@@H]1CNC[C@H](n2c3ccc(Cl)cc3c3cc(Cl)ccc32)[C@H]1O)c1ccc(OC(F)(F)F)cc1` [Example 44], the pIC50 was 5.00.

Regarding `CC(=O)N1CC(NS(=O)(=O)c2ccc(OC(F)(F)F)cc2)[C@H](O)C(N2c3ccccc3Oc3ccccc32)C1` (mixture of isomers) [Example 18, Rac-N-((3R,4R,5S)-1-acetyl-4-hydroxy-5-(10H-phenoxazin-10-yl)piperidin-3-yl)-4-(trifluoromethoxy)benzenesulfonamide], the pIC50 is 4.70.

`O=S(=O)(N[C@H]1CNC[C@@H](n2c3ccccc3c3ccccc32)[C@@H]1O)c1ccc(OC(F)(F)F)cc1` [Example 41b, N-((3S,4S,5R)-5-(9H-carbazol-9-yl)-4-hydroxypiperidin-3-yl)-4-(trifluoromethoxy)benzenesulfonamide]: the pIC50 was 5.00.

Take `O=S(=O)(N[C@H]1COC[C@@H](N2c3ccccc3Oc3ccccc32)[C@@H]1O)c1ccc(OC(F)(F)F)cc1` [Example 2b, N-((3S,4S,5R)-4-hydroxy-5-(10H-phenoxazin-10-yl)tetrahydro-2H-pyran-3-yl)-4-(trifluoromethoxy)benzenesulfonamide]: the pIC50 is 4.82.

The data set is the same for the next values; noted with them: at 40 uM; H1650 lung cancer cells, MTT, 48 hours.
Regarding `Nc1cccc(S(=O)(=O)N[C@@H]2COC[C@H](N3c4ccccc4Oc4ccccc43)[C@H]2O)c1` [Example 69, 3-amino-N-((3R,4R,5S)-4-hydroxy-5-(10H-phenoxazin-10-yl)tetrahydro-2H-pyran-3-yl)benzenesulfonamide], the “H1650 cell viability, % at 40 uM” value worked out at 54% at 40 uM.

As for `Nc1ccc(S(=O)(=O)N[C@@H]2COC[C@H](N3c4ccccc4Oc4ccccc43)[C@H]2O)cc1` [Example 67, 4-amino-N-((3R,4R,5S)-4-hydroxy-5-(10H-phenoxazin-10-yl)tetrahydro-2H-pyran-3-yl)benzenesulfonamide], the “H1650 cell viability, % at 40 uM” value is 56% at 40 uM.
